Experimental data as given in ChEMBL document CHEMBL4359906, “Design and synthesis of new N-terminal fatty acid modified-antimicrobial peptide analogues with potent in vitro biological activity” (Eur J Med Chem, 2019).
Values after ≈ are worked out from the molar mass of the structure shown. Active and inactive are the calls of the source. No cut-off for these calls is given here.

Key:
Pseudomonas aeruginosa [1] = experiment: Antibiofilm activity against Pseudomonas aeruginosa ATCC 27853 after 24 hrs by crystal violet staining based assay; format: functional, organism-based
Escherichia coli [2] = experiment: Antimicrobial activity against Escherichia coli ATCC 25922 at 1 mM preincubated for 6 hrs in presence of 2 ug/ml chymotrypsin and measured after 18 hrs by microplate reader analysis; format: functional, organism-based
Escherichia coli [3] = experiment: Induction of outer membrane permeabilization in Escherichia coli ATCC 25922 measured up to 12 mins by NPN-dye based assay; format: organism-based
Escherichia coli [4] = experiment: Antibiofilm activity against Escherichia coli ATCC 25922 at 2 times MIC after 24 hrs by crystal violet staining based assay; format: functional, organism-based
Escherichia coli [5] = experiment: Potentiation of rifampicin-induced antibacterial activity against Escherichia coli ATCC 25922 assessed as FICI after 18 hrs by checker board assay; format: functional
Escherichia coli [6] = experiment: Antimicrobial activity against Escherichia coli ATCC 25922 at 1 mM preincubated for 6 hrs in presence of 2000 ug/ml trypsin and measured after 18 hrs by microplate reader analysis; format: functional, organism-based
Escherichia coli [7] = experiment: Antibiofilm activity against Escherichia coli ATCC 25922 after 24 hrs by crystal violet staining based assay; format: functional, organism-based
Bacillus subtilis = experiment: Antibacterial activity against Bacillus subtilis ATCC 23857 after 18 hrs by CLSI based broth microdilution method; format: functional; settings: ATCC 23857, 18 h
Escherichia coli [8] = experiment: Induction of membrane disruption in Escherichia coli ATCC 25922 assessed as fracture in membrane at 4 times of MIC after 2 hrs by SEM analysis; format: functional, organism-based
Escherichia coli [9] = experiment: Ratio of antibacterial activity against Escherichia coli ATCC 25922 in presence of MgCl2 to antibacterial activity against Escherichia coli ATCC 25922; format: functional
Pseudomonas aeruginosa [10] = experiment: Antibacterial activity against Pseudomonas aeruginosa ATCC 27853 after 18 hrs by CLSI based broth microdilution method; format: functional; settings: ATCC 27853, 18 h
Staphylococcus aureus [11] = experiment: Ratio of antibacterial activity against Staphylococcus aureus ATCC 25923 in presence of KCl to antibacterial activity against Staphylococcus aureus ATCC 25923; format: functional
Escherichia coli [12] = experiment: Induction of ROS generation in Escherichia coli ATCC 25922; format: functional, organism-based
Pseudomonas aeruginosa [13] = experiment: Potentiation of rifampicin-induced antibacterial activity against Pseudomonas aeruginosa ATCC 27853 assessed as FICI after 18 hrs by checker board assay; format: functional
Escherichia coli [14] = experiment: Ratio of MIC for Escherichia coli ATCC 25922 preincubated for 6 hrs in presence of 10% mouse serum and measured after 18 hrs to MIC for antibacterial activity against Escherichia coli ATCC 25922 after 18 hrs; format: functional
[15] = Selectivity index, ratio of MHC10 for human RBC to geometric mean of peptide MIC for gram negative bacteria; format: toxicity; settings: human red blood cells, read-out: Selectivity Index
Escherichia coli [16] = experiment: Disruption of membrane integrity in Escherichia coli ATCC 25922 assessed as membrane damage by measuring PI fluorescence at 4 times of MIC incubated for 1 hr by PI dye based flow cytometric analysis (reference value: 1.35%); format: functional
Escherichia coli [17] = experiment: Antibacterial activity against Escherichia coli ATCC 43837 after 18 hrs by CLSI based broth microdilution method; format: functional; settings: ATCC 43837, 18 h
Klebsiella pneumoniae [18] = experiment: Antibacterial activity against Klebsiella pneumoniae ATCC 700603 after 18 hrs by CLSI based broth microdilution method; format: functional; settings: Klebsiella pneumoniae, 700603, 18 h
Escherichia coli [19] = experiment: Induction of inner membrane permeabilization in Escherichia coli ATCC 43837 assessed as increase in ONPG release at 1 to 2 times of MIC by ONPG dye based assay; format: organism-based
Staphylococcus aureus [20] = experiment: Ratio of antibacterial activity against Staphylococcus aureus ATCC 25923 in presence of FeCl3 to antibacterial activity against Staphylococcus aureus ATCC 25923; format: functional
Escherichia coli [21] = experiment: Induction of membrane disruption in Escherichia coli ATCC 25922 assessed as corrugated membrane surface at 4 times of MIC after 2 hrs by SEM analysis; format: functional, organism-based
[22] = Selectivity index, ratio of MHC10 for human RBC to geometric mean of peptide MIC for gram positive bacteria; format: toxicity; settings: human red blood cells, read-out: Selectivity Index
Staphylococcus aureus [23] = experiment: Ratio of antibacterial activity against Staphylococcus aureus ATCC 25923 in presence of MgCl2 to antibacterial activity against Staphylococcus aureus ATCC 25923; format: functional
Escherichia coli [24] = experiment: Induction of membrane disruption in Escherichia coli ATCC 25922 assessed as rough membrane surface at 4 times of MIC after 2 hrs by SEM analysis; format: functional, organism-based
Erythrocyte = experiment: Hemolytic activity in human RBC measured after 1 hr by microplate reader analysis; format: ADME, cell-based
DNA = experiment: Binding affinity to Escherichia coli ATCC 25922 genomic DNA after 30 mins by agarose gel electrophoresis; format: nucleic-acid assay
Escherichia coli [25] = experiment: Ratio of antibacterial activity against Escherichia coli ATCC 25922 in presence of NaCl to antibacterial activity against Escherichia coli ATCC 25922; format: functional
Escherichia coli [26] = experiment: Potentiation of polymyxin B-induced antibacterial activity against Escherichia coli ATCC 25922 assessed as FICI after 18 hrs by checker board assay; format: functional
Escherichia coli [27] = experiment: Disruption of membrane integrity in Escherichia coli ATCC 25922 assessed as membrane damage by measuring PI fluorescence at 2 times of MIC incubated for 1 hr by PI dye based flow cytometric analysis (reference value: 1.35%); format: functional
Staphylococcus aureus [28] = experiment: Antibacterial activity against methicillin-resistant Staphylococcus aureus 936 after 18 hrs by CLSI based broth microdilution method; format: functional; settings: Staphylococcus aureus, 936, 18 h
Staphylococcus aureus [29] = experiment: Ratio of antibacterial activity against Staphylococcus aureus ATCC 25923 in presence of NaCl to antibacterial activity against Staphylococcus aureus ATCC 25923; format: functional
Pseudomonas aeruginosa [30] = experiment: Potentiation of polymyxin B-induced antibacterial activity against Pseudomonas aeruginosa ATCC 27853 assessed as FICI after 18 hrs by checker board assay; format: functional
Escherichia coli [31] = experiment: Ratio of MIC for Escherichia coli ATCC 25922 preincubated for 1 hr in presence of 10% mouse serum and measured after 18 hrs to MIC for antibacterial activity against Escherichia coli ATCC 25922 after 18 hrs; format: functional
Klebsiella pneumoniae [32] = experiment: Potentiation of polymyxin B-induced antibacterial activity against Klebsiella pneumoniae ATCC 700603 assessed as FICI after 18 hrs by checker board assay; format: functional
Pseudomonas aeruginosa [33] = experiment: Antibiofilm activity against Pseudomonas aeruginosa ATCC 27853 at 0.25 to 2 times of MIC after 24 hrs by crystal violet staining based assay; format: functional, organism-based
Escherichia coli [34] = experiment: Induction of membrane disruption in Escherichia coli ATCC 25922 assessed as degeneration in membrane at 4 times of MIC after 2 hrs by SEM analysis; format: functional, organism-based
Staphylococcus aureus [35] = experiment: Antibiofilm activity against Staphylococcus aureus ATCC 25923 after 24 hrs by crystal violet staining based assay; format: functional, organism-based
Klebsiella pneumoniae [36] = experiment: Potentiation of rifampicin-induced antibacterial activity against Klebsiella pneumoniae ATCC 700603 assessed as FICI after 18 hrs by checker board assay; format: functional
Escherichia coli [37] = experiment: Induction of inner membrane permeabilization in Escherichia coli ATCC 43837 assessed as increase in ONPG release at 4 times of MIC by ONPG dye based assay; format: organism-based
Escherichia coli [38] = experiment: Antibacterial activity against Escherichia coli ATCC 25922 at 0.5 times MIC incubated for 18 hrs measured for 15 passages by CLSI based broth microdilution method; format: functional, organism-based

## CCCCCCCCCC(=O)NC(Cc1cn(CCCC[C@H](NC(C)=O)C(=O)NCC(=O)N[C@@H](CC(C)C)C(=O)N[C@@H](CC(C)C)C(=O)N[C@H](CCCCN)C(=O)N[C@@H](CCCNC(=N)N)C(=O)N[C@H](C(=O)N[C@H](CCCCN)C(=O)N[C@H](C(=O)N[C@@H](CC(C)C)C(=O)N[C@@H](CC(C)C)C(N)=O)[C@@H](C)O)[C@@H](C)CC)nn1)C(=O)NCC(=O)N[C@@H](CC(C)C)C(=O)N[C@@H](CC(C)C)C(=O)N[C@H](CCCCN)C(=O)N[C@@H](CCCNC(=N)N)C(=O)N[C@H](C(=O)N[C@H](CCCCN)C(=O)N[C@H](C(=O)N[C@@H](CC(C)C)C(=O)N[C@@H](CC(C)C)C(N)=O)[C@@H](C)O)[C@@H](C)CC (stereo partly specified)
Pseudomonas aeruginosa [1]
  inhibition: Dose-dependent effect
Escherichia coli [2]
  Activity: Active
Escherichia coli [3]
  Activity: Dose-dependent effect
Escherichia coli [4]
  inhibition: Active
Escherichia coli [5]
  fractional inhibitory concentration index (FICI): 0.3125
Escherichia coli [6]
  Activity: Active
Escherichia coli [7]
  inhibition: Dose-dependent effect
Bacillus subtilis
  MIC: 2 µM (≈ 5.51 µg/mL)
Escherichia coli [8]
  Activity: Active
Escherichia coli [9]
  Ratio: 2 - 4
Pseudomonas aeruginosa [10]
  MIC: 8 µM (≈ 22 µg/mL)
Staphylococcus aureus [11]
  Ratio: 2 - 4
Escherichia coli [12]
  Activity: inactive
Pseudomonas aeruginosa [13]
  fractional inhibitory concentration index (FICI): 0.5625
Escherichia coli [14]
  Ratio: 2
[15]
  selectivity ratio: 3.2
Escherichia coli [16]
  Activity: 82.3%
Escherichia coli [17]
  MIC: 8 µM (≈ 22 µg/mL)
Klebsiella pneumoniae [18]
  MIC: 16 µM (≈ 44 µg/mL)
Escherichia coli [19]
  Activity: Active
Staphylococcus aureus [20]
  Ratio: 2 - 4
Escherichia coli [21]
  Activity: Active
[22]
  selectivity ratio: 3.69
Staphylococcus aureus [23]
  Ratio: 2 - 4
Escherichia coli [24]
  Activity: Active
Erythrocyte
  MHC10: 32 µM
DNA
  Activity: Dose-dependent effect
Escherichia coli [25]
  Ratio: 2 - 4
Escherichia coli [26]
  fractional inhibitory concentration index (FICI): 0.3125
Escherichia coli [27]
  Activity: 56.3%
Staphylococcus aureus [28]
  MIC: 16 µM (≈ 44 µg/mL)
Staphylococcus aureus [29]
  Ratio: 2 - 4
Pseudomonas aeruginosa [30]
  fractional inhibitory concentration index (FICI): 0.25
Escherichia coli [31]
  Ratio: 1
Klebsiella pneumoniae [32]
  fractional inhibitory concentration index (FICI): 0.5625
Pseudomonas aeruginosa [33]
  inhibition: Active
Escherichia coli [34]
  Activity: Active
Staphylococcus aureus [35]
  inhibition: Dose-dependent effect
Klebsiella pneumoniae [36]
  fractional inhibitory concentration index (FICI): 0.5
Escherichia coli [37]
  Activity: Active
Escherichia coli [38]
  Activity: Active
